Measured values: US20220220106A1, “QUINOLINE COMPOUNDS AND PHARMACEUTICAL COMPOSITIONS AND USES THEREOF” (Academy of Military Medical Sciences, priority 2019, published 2022)

Experiments:
[1] = tested on: Enterovirus 71 (EV71) H strain; experiment: In vitro anti-EV71 activity (antiviral activity in RD cells, CellTiter-Glo); assay type: cell-based; details: for IC50: Enterovirus A, 96 h, EV71 H strain, RD cells, 4 days, CellTiter-Glo, read-out: IC50; for in vitro anti-EV71 activity, in words: EV71, RD cells
Protocol: According to the mass and molecular weight of the compound to be tested, the compound to be tested was dissolved to 100 mM (mmol/L) with DMSO.
Detection of Antiviral Activity:
(1) First, the compound to be tested was diluted to 800 μM with cell maintenance solution (DMEM+2% FBS, Gibco, catalog numbers: 11995-065, 1600-044), and three-fold gradient dilution was performed to prepare 10 concentrations in total. The diluted compound was added to a 96-well plate with white wall and transparent bottom, 50 μl per well. To both the cell control group and the virus control group, an equal volume of the cell maintenance solution was added.
(2) EV71 virus (purchased from ATCC) was taken out from the −80° C. refrigerator and equilibrated to room temperature.
(3) The virus seed was diluted with a virus growth solution (DMEM+2% FBS, Gibco, catalog numbers: 11995-065, 1600-044) to 100TCID50, the diluted virus seed was added to the 96-well plate of (1), with […] per well. The same volume of the virus growth solution was added to the cell control group.
(4) RD cells (purchased from ATCC) were inoculated at a concentration of 1*10^5/mL into the 96-well plate of (1), with 100 μL per well, to reach a final volume of 200 μL per well. The final concentration of drug was 0.25 times the initial concentration.
(5) RD cells were cultured at 37° C. for 4 days for testing.
(6) The Buffer of CellTiter-Glo® luminescent cell viability assay reagent (Promega) was mixed with the substrate in the dark to prepare a working solution.
(§1) (7) The culture medium in the plate was discarded, the plate was dried by patting, 100 μL of the detection reagent was added to each well, and the 96-well plate was shaken on an orbital shaker for 4 minutes to induce cell lysis. After keeping in the dark and subjecting to signal stabilization for 15 minutes, the chemiluminescence unit was detected by using MD5 microplate reader (Molecular Devices), and the plate reading program was performed according to the CellTiter-Glo preset program.
The inhibition rate-concentration curve was fitted to S-curve by using origin8.0 software to calculate the IC50 value of the compound to be tested.
(§2) The formula for calculating the inhibition rates of drug at different dilution degrees was as follows: inhibition rate (%)=(average value of cell control group−value of experimental group)/(average value of cell control group−minimum value of experimental group)*100
(§3) The inhibition rate-concentration curve was fitted to S-curve by using origin8.0 software, and the IC50 value of the compound to be tested was calculated. The same method was used to calculate the TD50 value, and the selection index SI=TD50/IC50 was calculated according to the half maximal inhibitory concentration IC50 and the median toxic dose TD50.

RD cells = experiment: Detection of cytotoxicity in RD cells (CellTiter-Glo); assay type: cell-based; details: 4 days, CellTiter-Glo, median toxic dose
Protocol: Detection of Cytotoxicity:
(1) The compound to be tested was diluted to a concentration of 400 μM with the cell maintenance solution, and 3-fold gradient dilution was carried out to obtain 10 concentrations in total.
(2) The diluted compound was added to a 96-well plate with white wall and transparent bottom, with 100 μL per well. An equal volume of the cell maintenance solution was added to the cell control group.
(3) RD cells were inoculated into the above 96-well plate at a concentration of 1*10^5/mL, with 100 μL per well, to reach a final volume of 200 μL per well, and the final concentration of drug was 0.5 times the pretreatment concentration.
(4) The RD cells were cultured at 37° C. for 4 days for testing.
(5) The Buffer of CellTiter-Glo® luminescent cell viability assay reagent was mixed with the substrate in the dark to prepare a working solution.
as §1, with “(6)” for “(7)”, “detected,” for “detected by using MD5 microplate reader (Molecular Devices),”
as §2, §3

IC50 [1] [µM]	melting point [°C]	Structure (SMILES)	TD50 (RD cells) [µM]	in vitro anti-EV71 activity, in words [1]
> 200	137 to 138	O=c1ccc2cnc3ccc(Nc4ccc(Cl)nc4)cc3c2n1-c1cccc(C(F)(F)F)c1 [HTL-6-21, 9-[3-(6-chloropyridyl)]imino-2-oxo-1-[3-(trifluoromethyl)phenyl]-1,2-dihydrobenzo[h][1,6]naphthyridine]	20.75 ± 2.11	
> 200	184 to 185	CCOc1cccc(-c2ccc3ncc(/C=C/C(C)=O)c(Nc4cccc(C(F)(F)F)c4)c3c2)c1 [HTL-3-16, (E)-6-(3-ethoxy)phenyl-4-[3-(trifluoromethyl)phenyl]aminoquinoline-3-butenone]	0.83 ± 0.79	
> 200	210 to 213	CC(=O)/C=C/c1cnc2ccc(-c3ccc(F)c(F)c3)cc2c1Nc1cccc(C(F)(F)F)c1 [HTL-3-34, (E)-6-(3,4-difluoro)phenyl-4-[3-(trifluoromethyl)phenyl]aminoquinoline-3-butenone]	3.02 ± 0.91	
> 200	276 to 277	O=c1oc2cnc3ccc(-c4ccoc4)cc3c2n1-c1cccc(C(F)(F)F)c1 [HTL-5-25, 8-(3-furyl)-1-[3-(trifluoromethyl)phenyl]oxazolo[5,4-c]quinolin-2(1H)-one]	>200	
0.85 ± 0.03	177 to 179	CC(=O)/C=C/c1cnc2ccc(-c3cn[nH]c3)cc2c1Nc1cccc(C(F)(F)F)c1 [HTL-3-26, (E)-6-(1H-4-pyrazolyl)-4-[3-(trifluoromethyl)phenyl]aminoquinoline-3-butenone]	1.43 ± 1.62	moderate anti-EV71 activity
> 200	254	CCOc1ccc(-c2ccc3ncc4oc(=O)n(-c5cccc(C(F)(F)F)c5)c4c3c2)cc1 [HTL-5-27, 8-(4-ethoxy)phenyl-1-[3-(trifluoromethyl)phenyl]oxazolo[5,4-c]quinolin-2(1H)-one]	>200	
> 200	184 to 186	CC(=O)/C=C/c1cnc2ccc(-c3cccc(N)c3)cc2c1Nc1cccc(C(F)(F)F)c1 [HTL-2-42, (E)-6-(3-aminophenyl)-4-[3-(trifluoromethyl)phenyl]aminoquinoline-3-butenone]	>200	
> 200	149 to 150	CCCCc1ccc(-c2ccc3ncc(/C=C/C(C)=O)c(Nc4cccc(C(F)(F)F)c4)c3c2)cc1 [HTL-3-42, (E)-6-(4-butyl)phenyl-4-[3-(trifluoromethyl)phenyl]aminoquinoline-3-butenone]	0.96 ± 0.15	
0.09 ± 0.01	307 to 308	NC(=O)/C=C/c1ccc2ncc3ccc(=O)n(-c4cccc(C(F)(F)F)c4)c3c2c1 [HTL-7-24, (E)-9-(2-carbamoyl-vinyl)-2-oxo-1-[3-(trifluoromethyl)phenyl]-1,2-dihydrobenzo[h][1,6]naphthyridine]	0.15 ± 0.01	strong inhibitory activity
> 200	173 to 176	CC(=O)/C=C/c1cnc2ccc(-c3cnc4ccccc4c3)cc2c1Nc1cccc(C(F)(F)F)c1 [HTL-3-25, (E)-6-(3-quinolyl)-4-[3-(trifluoromethyl)phenyl]aminoquinoline-3-butenone]	0.68 ± 0.21	
> 200	218 to 222	CC(=O)/C=C/c1cnc2ccc(-c3ccc(O)cc3)cc2c1Nc1cccc(C(F)(F)F)c1 [HTL-3-11, (E)-6-(4-hydroxy)phenyl-4-[3-(trifluoromethyl)phenyl]aminoquinoline-3-butenone]	>200	
> 200	177 to 179	N#CC/C=C/c1ccc2ncc3oc(=O)n(-c4cccc(C(F)(F)F)c4)c3c2c1 [HTL-6-31, (E)-8-(3-cyano-propenyl)-1-[3-(trifluoromethyl)phenyl]oxazolo[5,4-c]quinolin-2(1H)-one]	9.20 ± 2.34	
0.41 ± 0.03	150 to 151	NC(=O)NC/C=C/c1ccc2ncc3ccc(=O)n(-c4cccc(C(F)(F)F)c4)c3c2c1 [HTL-7-25, (E)-9-[3-ureido-propenyl]-2-oxo-1-[3-(trifluoromethyl)phenyl]-1,2-dihydrobenzo[h][1,6]naphthyridine]	4.42 ± 0.45	moderate inhibitory activity
> 200	176 to 179	O=c1ccc2cnc3ccc(Nc4ccc(F)cc4)cc3c2n1-c1cccc(C(F)(F)F)c1 [HTL-6-23, 9-(4-fluorophenyl)imino-2-oxo-1-[3-(trifluoromethyl)phenyl]-1,2-dihydrobenzo[h][1,6]naphthyridine]	7.22 ± 0.47	
> 200	231 to 232	CCCCC(=O)Nc1ccc(-c2ccc3ncc4oc(=O)n(-c5cccc(C(F)(F)F)c5)c4c3c2)cn1 [WSX-1-24, 8-[3-(6-valerylamino)pyridyl]-1-[3-(trifluoromethyl)phenyl]oxazolo[5,4-c]quinolin-2(1H)-one]	4.27 ± 2.83	
> 200	234 to 236	Cc1ccc(Nc2ccc3ncc4ccc(=O)n(-c5cccc(C(F)(F)F)c5)c4c3c2)cn1 [HTL-6-19, 9-[3-(6-methylpyridyl)]imino-2-oxo-1-[3-(trifluoromethyl)phenyl]-1,2-dihydrobenzo[h][1,6]naphthyridine]	22.62 ± 2.15	
> 200	211 to 214	CC(=O)/C=C/c1cnc2ccc(-c3ccc(C(N)=O)cc3)cc2c1Nc1cccc(C(F)(F)F)c1 [HTL-3-45, (E)-6-(4-carbamoyl)phenyl-4-[3-(trifluoromethyl)phenyl]aminoquinoline-3-butenone]	2.42 ± 0.06	
> 200	181 to 185	CC(=O)/C=C/c1cnc2ccc(-c3cccs3)cc2c1Nc1cccc(C(F)(F)F)c1 [HTL-3-24, (E)-6-(2-thienyl)-4-[3-(trifluoromethyl)phenyl]aminoquinoline-3-butenone]	1.35 ± 1.16	
> 200	141 to 142	CC(C)(C)c1ccc(Nc2ccc3ncc4ccc(=O)n(-c5cccc(C(F)(F)F)c5)c4c3c2)cc1 [HTL-6-18, 9-(4-tert-butylphenyl)imino-2-oxo-1-[3-(trifluoromethyl)phenyl]-1,2-dihydrobenzo[h][1,6]naphthyridine]	7.04 ± 0.68	
> 200	187 to 191	CC(=O)/C=C/c1cnc2ccc(-c3ccc(CC(C)C)cc3)cc2c1Nc1cccc(C(F)(F)F)c1 [HTL-3-41, (E)-6-(4-isobutyl)phenyl-4-[3-(trifluoromethyl)phenyl]aminoquinoline-3-butenone]	0.99 ± 0.24	
> 200	173 to 174	CC(=O)/C=C/c1cnc2ccc(-c3ccc(C#N)cc3)cc2c1Nc1cccc(C(F)(F)F)c1 [HTL-3-15, (E)-6-(4-cyano)phenyl-4-[3-(trifluoromethyl)phenyl]aminoquinoline-3-butenone]	>200	
> 200	272 to 274	O=c1oc2cnc3ccc(-c4cccs4)cc3c2n1-c1cccc(C(F)(F)F)c1 [HTL-5-26, 8-(2-thienyl)-1-[3-(trifluoromethyl)phenyl]oxazolo[5,4-c]quinolin-2(1H)-one]	>200	
